Like-named read-outs stand apart in the source and are kept apart here. Bridge positions count the residues as written; N and C are the ends. Square brackets hold non-standard residues; d marks the D form. Peptide text beside a SMILES is read from it. * marks the point of attachment. ξ: configuration not given here. X19 = NC(=O)[C@H](CCCCNC(=O)CCCC[C@@H]1SC[C@@H]2NC(=O)N[C@@H]21)NC(=O)CCC(=O)NCCCOCCOCCOCCCNC(=O)CCC(=O)NCCCOCCOCCOCCCNC(=O)CCC(=O)NCCCOCCOCCOCCCN*; Phe(4-Cl) = N[C@@H](Cc1ccc(Cl)cc1)C(=O)O; Cit = NC(=O)NCCC[C@H](N)C(=O)O; Tle = CC(C)(C)[C@H](N)C(=O)O; Aib = CC(C)(N)C(=O)O; ξM = CSCCC(N)C(=O)O
Assays:
[1] = biological target: T1, PSMA-expressing C4-2 cells (Homo sapiens, UniProt Q04609); test: FACS binding assay (competition with 50 nM PSM-0183); settings: C4-2 cells, read-out: pIC50 [C4-2] CAT (converted)
T1 construct: PSMA-expressing C4-2 cells (ATCC, Cat. No. CRL-3314) were cultured in RPMI-1640; host or cells: C4-2 cells
T1 sequence (Q04609 whole entry): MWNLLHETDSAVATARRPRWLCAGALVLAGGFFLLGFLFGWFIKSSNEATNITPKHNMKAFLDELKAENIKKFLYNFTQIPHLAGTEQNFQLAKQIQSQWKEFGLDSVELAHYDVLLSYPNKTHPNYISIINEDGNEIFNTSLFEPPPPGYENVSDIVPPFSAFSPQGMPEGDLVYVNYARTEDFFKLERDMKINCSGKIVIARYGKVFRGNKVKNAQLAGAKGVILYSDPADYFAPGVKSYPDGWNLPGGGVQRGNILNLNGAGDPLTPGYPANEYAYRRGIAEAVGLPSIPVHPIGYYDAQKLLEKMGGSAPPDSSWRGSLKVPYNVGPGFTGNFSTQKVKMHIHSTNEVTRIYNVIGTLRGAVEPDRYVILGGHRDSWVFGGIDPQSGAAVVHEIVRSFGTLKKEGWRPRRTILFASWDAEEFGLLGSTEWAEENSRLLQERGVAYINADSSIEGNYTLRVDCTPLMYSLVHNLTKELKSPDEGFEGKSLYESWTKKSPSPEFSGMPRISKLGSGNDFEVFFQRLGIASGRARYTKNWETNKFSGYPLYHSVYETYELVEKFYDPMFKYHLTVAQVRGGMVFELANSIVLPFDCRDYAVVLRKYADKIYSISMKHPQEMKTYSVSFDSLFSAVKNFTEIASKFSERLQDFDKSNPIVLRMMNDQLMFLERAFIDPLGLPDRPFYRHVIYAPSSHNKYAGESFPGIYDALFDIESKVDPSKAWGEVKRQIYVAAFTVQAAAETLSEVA
Procedure: In order to determine binding of compounds according to the present invention to PSMA-expressing cells, a FACS binding assay was established.
PSMA-expressing C4-2 cells (ATCC, Cat. No. CRL-3314) were cultured in RPMI-1640 (Pan Biotech, Cat. No. P04-18050) including 10% fetal calf serum (Biochrom) and 100 U/ml penicillin and 100 μg/mL streptomycin (Sigma, Cat. No. P0781). Cells were detached with Accutase (Biolegend, Cat. No. BLD-423201) and washed in FACS buffer (PBS (Sigma, Cat. No. D8537) including 1% fetal calf serum). Cells were diluted in FACS buffer to a final concentration of 500,000 cells per mL. 200 μL of the cell suspension were transferred to a u-shaped non-binding 96-well plate (Greiner Bio-One, Cat. No. 650901) and cells were washed in ice-cold FACS buffer.
For IC50 determination, C4-2 cells were incubated with 50 nM PSM-0183 (Ac-Thr-Aib-Phe[Cys-Lys-Arg-Aib-Asn-Cys]-Tle-Thr-Asp-Ttds-Ttds-AF488N3K-NH2) in the presence of increasing concentrations of test compounds at 4° C. for 1 hour. After two wash steps with ice-cold FACS buffer, cells were analyzed in an Attune NxT flow cytometer. Median fluorescence intensities (MFI) of the FITC/AF488-channel were calculated by Attune NxT software. MFI values were plotted against peptide concentration and four parameter logistic (4PL) curve fitting and IC50/pIC50 calculations were performed using ActivityBase software (IDBS).

[2] = biological target: T2, Fc-fusion protein of human PSMA (hPSMA-Fc) (Homo sapiens, UniProt Q04609); test: Surface plasmon resonance assay (Biacore T200, single cycle kinetic); format: binding; settings: hPSMA-Fc, 25° C., read-out: pKD CAT (converted)
T2 construct: purchased Acro Biosystems PSA-H5264
T2 sequence (Q04609 44-750 limits assumed): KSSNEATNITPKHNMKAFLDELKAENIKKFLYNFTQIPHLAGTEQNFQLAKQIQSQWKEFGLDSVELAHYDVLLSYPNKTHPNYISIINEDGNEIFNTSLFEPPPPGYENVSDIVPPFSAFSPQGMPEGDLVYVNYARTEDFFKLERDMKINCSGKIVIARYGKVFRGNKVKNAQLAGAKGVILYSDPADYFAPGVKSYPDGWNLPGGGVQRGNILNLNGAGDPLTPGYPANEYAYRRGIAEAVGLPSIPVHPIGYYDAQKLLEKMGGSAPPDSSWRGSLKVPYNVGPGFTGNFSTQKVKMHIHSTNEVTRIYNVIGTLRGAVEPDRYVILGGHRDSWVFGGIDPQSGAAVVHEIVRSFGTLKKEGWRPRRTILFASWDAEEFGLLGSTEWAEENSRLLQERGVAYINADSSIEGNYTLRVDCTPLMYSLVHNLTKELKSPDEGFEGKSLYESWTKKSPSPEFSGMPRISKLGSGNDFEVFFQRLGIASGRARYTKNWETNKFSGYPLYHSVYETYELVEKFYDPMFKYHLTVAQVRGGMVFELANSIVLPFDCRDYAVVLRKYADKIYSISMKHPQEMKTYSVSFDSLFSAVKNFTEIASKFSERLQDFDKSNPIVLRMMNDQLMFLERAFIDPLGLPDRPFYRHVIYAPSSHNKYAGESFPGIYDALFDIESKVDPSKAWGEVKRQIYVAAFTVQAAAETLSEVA
Procedure: Surface plasmon resonance (SPR) studies were performed using a Biacore™ T200 SPR system. Briefly, polarized light is directed towards a gold-labeled sensor surface, and minimum intensity reflected light is detected. The angle of reflected light changes as molecules bind and dissociate.
Fc-fusion protein of human PSMA (hPSMA-Fc, Acro Biosystems, Cat #PSA-H5264) was captured on a Fc-capture chip (Biacore™ CM5 sensor chip coated with ˜300 RU of an Fc-binding peptide). hPSMA-Fc was diluted in Running Buffer (HBST, 0.1% DMSO) to a final concentration of 100 nM and then flushed over the Fc-capture chip to immobilized ˜1000 RUs.
Stock solutions of test compounds were prepared by dissolving each compound in DMSO. DMSO stock solution were diluted 1:1000 in Running Buffer without DMSO. Further sequential dilutions were made with Running Buffer containing 0.1% DMSO. SPR binding analyses were performed in Single Cycle Kinetic (SCK) mode at 25° C. Flow cell coated with the Fc-binding peptide only served as reference flowcell. After each SCK run, hPSMA-Fc was removed with 10 mM glycine buffer, pH 1.5.
In between every three SCK measurements, a blank run with Running Buffer instead of test compound was included to correct for baseline drifts (double blanking method).
Table 5 describes the protocol steps for Fc-fusion target capturing and assessment of the binding kinetics.
For each test compound, SPR raw data in the form of resonance units (RU) were plotted as sensorgrams using the Biacore™ T200 control software. The signal from the blank sensorgram was subtracted from that of the test compound sensorgram (blank corrected). The blank corrected sensorgram was corrected for baseline drift by subtracting the sensorgram of a SCK run without the test compound (running buffer only). The dissociation constant (KD) was calculated from Blank-normalized SPR data using the 1:1 Langmuir binding model from the Biacore™ Insight Evaluation software. The pKD value (negative decadic logarithm of dissociation constant) was calculated using Microsoft Excel.

[3] = FACS binding, competition with 50 nM PSM-0183, category
[4] = SPR, single cycle kinetic, category

SMILES	IC50 ([1]; pIC50 category of FACS binding) [nM]	Kd ([2]; pKD category for PSMA SPR activity assay) [nM]	IC50 [1, 3] [nM]	Kd [2, 4] [nM]
CC(=O)N[C@H](C(=O)NC(C)(C)C(=O)N[C@@H](Cc1ccccc1)C(=O)N[C@H]1CSSC[C@@H](C(=O)N[C@H](C(=O)N[C@H](C(N)=O)[C@@H](C)O)C(C)(C)C)NC(=O)[C@H](CC(N)=O)NC(=O)C(C)(C)NC(=O)[C@H](CCCNC(=N)N)NC(=O)[C@H](CCCCN)NC1=O)[C@@H](C)O [PSM-0178, Ac-Thr-Aib-Phe-[Cys-Lys-Arg-Aib-Asn-Cys]-Tle-Thr-NH2] (Ac-T[Aib]FCKR[Aib]NC[Tle]T-NH2; disulfide 4-9)	–	–	< 200	< 12.6
CC(=O)N[C@H](C(=O)NC(C)(C)C(=O)N[C@@H](Cc1ccc(Cl)cc1)C(=O)N[C@H]1CSSC[C@@H](C(=O)N[C@H](C(=O)N[C@H](C(N)=O)[C@@H](C)O)C(C)(C)C)NC(=O)[C@H](CC(N)=O)NC(=O)C(C)(C)NC(=O)[C@H](CCCNC(N)=O)NC(=O)[C@H](CCCCN)NC1=O)[C@@H](C)O [PSM-0179, Ac-Thr-Aib-Pcf-[Cys-Lys-Cit-Aib-Asn-Cys]-Tle-Thr-NH2] (Ac-T[Aib][Phe(4-Cl)]CK[Cit][Aib]NC[Tle]T-NH2; disulfide 4-9)	–	–	< 200	< 12.6
CC(=O)N[C@H](C(=O)NC(C)(C)C(=O)N[C@@H](Cc1ccccc1)C(=O)N[C@H]1CSSC[C@@H](C(=O)N[C@H](C(=O)N[C@H](C(=O)N[C@@H](CC(=O)O)C(=O)NCCCOCCOCCOCCCNC(=O)CCC(=O)NCCCOCCOCCOCCCNC(=O)CCC(=O)N[C@H](CCCCn2nnc3c2-c2ccccc2CN(C(=O)CCNC(=O)c2ccc(-c4c5ccc(=N)c(S(=O)(=O)O)c-5oc5c(S(=O)(=O)O)c(N)ccc45)c(C(=O)O)c2)c2ccccc2-3)C(N)=O)[C@@H](C)O)C(C)(C)C)NC(=O)[C@H](CC(N)=O)NC(=O)C(C)(C)NC(=O)[C@H](CCCNC(=N)N)NC(=O)[C@H](CCCCN)NC1=O)[C@@H](C)O [PSM-0183, Ac-Thr-Aib-Phe-[Cys-Lys-Arg-Aib-Asn-Cys]-Tle-Thr-Asp-Ttds-Ttds-AF488N3K-NH2]	–	–	–	< 12.6

Now from value to compound:

IC50 ([1]; pIC50 category of FACS binding) [nM]	Kd ([2]; pKD category for PSMA SPR activity assay) [nM]	IC50 [1, 3] [nM]	Kd [2, 4] [nM]	SMILES
> 3160	> 501	–	–	CCCC[C@H](NC(=O)[C@@H]1CSSC[C@H](NC(=O)[C@H](Cc2ccccc2)NC(=O)[C@H](C)NC(=O)[C@@H](NC(C)=O)[C@@H](C)O)C(=O)N[C@@H](CCCCN)C(=O)N[C@@H](CCCNC(=N)N)C(=O)N[C@@H](C)C(=O)N[C@@H](CC(N)=O)C(=O)N1)C(=O)N[C@H](C(=O)N[C@H](CC(=O)O)C(N)=O)[C@@H](C)O (single isomer, unassigned) [PSM-0436, Ac-Thr-Ala-phe-[Cys-Lys-Arg-Ala-Asn-Cys]-Nle-Thr-Asp-NH2]
–	–	200 to 1260	–	CSCCC(N)C(=O)N[C@H](C(=O)N[C@@H](C)C(=O)N[C@@H](Cc1ccccc1)C(=O)N[C@H]1CSSC[C@@H](C(=O)N[C@@H](CC(C)C)C(=O)N[C@H](C(=O)N[C@@H](CC(=O)O)C(=O)NCC(=O)N[C@@H](CO)C(=O)NCCCOCCOCCOCCCNC(=O)CCC(=O)NCCCOCCOCCOCCCNC(=O)CCC(=O)NCCCOCCOCCOCCCNC(=O)CCC(=O)N[C@@H](CCCCNC(=O)CCCC[C@@H]2SC[C@@H]3NC(=O)N[C@@H]32)C(N)=O)[C@@H](C)O)NC(=O)[C@H](CC(N)=O)NC(=O)[C@H](C)NC(=O)[C@H](CCCNC(=N)N)NC(=O)[C@H](CCCCN)NC1=O)[C@@H](C)O (stereo partly drawn) [PSM-0226, H-Met-Thr-Ala-Phe-[Cys-Lys-Arg-Ala-Asn-Cys]-Leu-Thr-Asp-Gly-Ser-Ttds-Ttds-Ttds-Lys(Bio)-NH2] (H-[ξM]TAFCKRANCLTDGS-X19; disulfide 5-10)
